Article PMC5469451, “Identification of compounds that suppress Toxoplasma gondii tachyzoites and bradyzoites” (PLoS ONE, 2017)
Like-named read-outs stand apart in the source and are kept apart here.

Tests used:
HFF cells [1] = assay: Host cell cytotoxicity assay (Cell-Titer Glo), HFF cells; assay type: cell-based, human
Method: (§1) Vero cells and HFF cells were both used as host cells because both cell types were used for the parasite screening. After incubation for 48 h in DMEM supplemented with 5% FBS, L-glutamine, penicillin, and streptomycin, cell viabilities were measured by using a Cell-Titer Glo kit (Promega) following the manufacturer’s instructions. Control wells were treated with DMSO alone in culture medium to calculate the 100% viability for each cell type.

Vero cells = assay: Host cell cytotoxicity assay (Cell-Titer Glo), Vero cells; assay type: cell-based
Method: (§2) Host cells were treated with compounds at the same concentration used for screening (i.e., 0.5% DMSO and 10 μM compound). Vero cells and HFF cells were both used as host cells because both cell types were used for the parasite screening. After incubation for 48 h in DMEM supplemented with 5% FBS, L-glutamine, penicillin, and streptomycin, cell viabilities were measured by using a Cell-Titer Glo kit (Promega) following the manufacturer’s instructions. Control wells were treated with DMSO alone in culture medium to calculate the 100% viability for each cell type.

[2] = system: PLK/DLUC_1C9 tachyzoites in Vero cells; assay: Primary screening: T. gondii growth assay, Renilla luciferase; assay type: cell-based, Toxoplasma gondii; conditions: 48 h; for inhibition at 10 µM: Toxoplasma gondii, read-out: Parasite Inhibition (%)
Method: In the primary screening, purified PLK/DLULC_1C9 tachyzoites were incubated with Vero cells at a multiplicity of infection (MOI) of 0.5. After a 2-h incubation, the infected host cells were trypsinized to obtain a cell suspension and then these suspended infected cells were inoculated into 96-well optical bottom plates containing the compound library. Each well was inoculated with 2500 cells in 25 μL of culture medium. […] Following cell inoculation, each well therefore contained 0.5% DMSO and 10 μM compound. After 48 h of culture, Renilla luciferase activity was measured by using Renilla-Glo (Promega, WI, USA) following the manufacturer’s instructions. […] The Z’-value for each plate was calculated from the Renilla luciferase activity in the negative and positive control wells.

[3] = system: RH-2F tachyzoites (type I strain) in HFF cells; assay: Confirmatory screening: RH-2F β-galactosidase growth assay in HFF cells; assay type: cell-based, Toxoplasma gondii; conditions: for Parasite inhibition (%) / inhibition at 2.5 µM / inhibition at 25 µM: 48 h; for inhibition at 2.5 µM / inhibition at 25 µM: read-out: Parasite inhibition (%)
Method: In the confirmatory screening, we utilize an RH strain β-galactosidase reporter parasite termed RH-2F (a type I strain). Briefly, RH-2F parasites were purified from freshly lysed infected host cells and used to infect confluent HFF cells cultured in 96-well plates. Five hundred parasites were added to each well, along with each test compound and 50 μL of culture medium. Plates were then incubated for 10 min at room temperature followed by an incubation at 37°C for 48 h in a CO2 incubator.
(§3) To measure the effects of tanshinone IIA and hydroxyzine on intracellular parasite growth, parasites were allowed to invade for 2 h, uninvaded parasites were washed away, and medium with compounds was added. After 48 h, the plates were frozen at -80°C. Plates were then thawed just prior to the measurement of beta-galactosidase activity. Beta-Glo (Promega) was used to measure β-galactosidase activity following the manufacturer’s instructions.

[4] = Host cell cytotoxicity assay (Cell-Titer Glo), HFF cells; assay type: cell-based, human; conditions: human
Method: as §1

[5] = Host cell cytotoxicity assay (Cell-Titer Glo), Vero cells; assay type: cell-based; conditions: African green monkey
Method: as §2

[6] = system: PLK/DLUC_1C9 in vitro-induced bradyzoites in HFF cells; assay: Effect on in vitro-induced bradyzoites (Dual-Glo firefly luciferase, BAG1 promoter); assay type: cell-based, Toxoplasma gondii; conditions: 3 days bradyzoite induction, then 10, 5, 2.5, 1 μM for 48 h; relative to DMSO
Method: To measure the effect of tanshinone IIA and hydroxyzine on in vitro-induced bradyzoites, we used PLK/DLUC_ 1C9 parasites and the Dual-Glo luciferase assay. Briefly, HFF cells in 96-well plates were infected with 1 x 10^4 parasites/well and incubated for 3 days with ambient CO2 condition in DMEM containing 25 mM HEPES pH 8.1 and 1% FBS to induce bradyzoites. Induced bradyzoites were treated with 10, 5, 2.5, and 1 μM compounds under bradyzoite-inducing conditions. After 48 h, luciferase activities were measured by using the Dual-Glo assay system (Promega) and normalized by host cell number.

[7] = system: RH-2F intracellular parasites in HFF cells; assay: Intracellular parasite growth after invasion (β-galactosidase); assay type: cell-based, Toxoplasma gondii; conditions: uninvaded parasites washed away, 48 h; 1.0 μM hydroxyzine, 2.5 μM tanshinone IIA, 25 mg/ml DS10
Method: as §3

[8] = system: PruΔku80Δhxgprt in HFF cells; assay: Immunofluorescence-based assay on spontaneously induced bradyzoites; assay type: cell-based, Toxoplasma gondii; conditions: 10, 2, 0.4, 0.08 μM, 48 h; for Bradyzoite differentiation (GFP-positive PV rate): compared with DMSO
Method: PruΔku80Δhxgprt, which expresses GFP under the control of a bradyzoite-specific gene LDH2 promoter, [13] was used. HFF host cells were seeded to a 96-well glass bottom plate (MGB096-1-2-LG-L, Brooks Automation, MA, USA) and cultured until confluent. Parasites were freshly lysed by passing them through 27 G needles and were purified by passing them through a 5-μm-pore filter. Five thousand parasites in 100 μL of culture medium were added and mixed with an equal volume of compound-containing medium to give final drug concentrations of 10, 2, 0.4, and 0.08 μM in 0.2% DMSO. After incubation at room temperature for 10 min, the infected host cells were incubated for 48 h at 37°C in a 5% CO2 incubator. After incubation, the cells were fixed with 4% paraformaldehyde in PBS for 20 min, quenched, and permeabilized with 0.2 M glycine and 0.2% TritonX-100 in PBS for 20 min, and then blocked with 3% BSA and 0.1% Tween 20 in PBS (blocking buffer); each procedure was performed at room temperature and was followed by washes with PBS three times. All parasites were stained with an anti-Toxoplasma mouse antibody (antisera produced in ME49-infected mice), and bradyzoites were detected with an anti-GFP rabbit monoclonal antibody (Life Technologies). Secondary antibodies for mouse (Alexa633 conjugated) and rabbit (Alexa488 conjugated) and DAPI were used to develop the fluorescent signal. Stained cells on 96-well plates were analyzed with a CompuCyte iCys Research Imaging Cytometer (Beckman Coulter, IN, USA).

[9] = system: PLK/DLUC_1C9 parasites in HFF cells; assay: Bradyzoite differentiation assay, relative BAG1 promoter activity (Dual-Glo); assay type: cell-based, Toxoplasma gondii; conditions: 1 μM hydroxyzine, 2.5 μM tanshinone IIA; added 24 h after infection, 48 h treatment
Method: To measure bradyzoite induction activities of tanshinone IIA and hydroxyzine, PLK/DLUC_1C9 parasites were purified and then inoculated at a concentration of 2.0 x 10^4 parasites/well into 12-well plates containing confluent monolayers of HFF cells. Cells were incubated for 24 h after infection, then compounds were added, and the cells were incubated for 48 h. After incubation, the cells in each well were lysed using 200 μL of Passive Lysis Buffer (Promega) and the lysates were stored at -80°C. For the luciferase assay, 25 μL of lysate was used and the Renilla and firefly luciferase activities were measured by using Dual-Glo (Promega) according to the manufacturer’s instruction.

HFF cells [10] = assay: Host cell viability in bradyzoite differentiation condition; assay type: cell-based, human; conditions: HFF, pH 8.1, 1% FBS, 48 h
Method: To evaluate the host cell viability in bradyzoite differentiation condition, HFF cells were incubated for 48 h in DMEM containing 25 mM HEPES pH 8.1 and 1% FBS and measured the viability as described above.

[11] = 25 μM, 48 h, HFF cells, compared with DMSO
[12] = 10 μM, 48 h, Vero cells, DMSO = 100%
[13] = 10 μM, PLK/DLUC_1C9 in Vero cells, DMSO = 0%, 10 μM pyrimethamine = 100%
[14] = 2.5 μM, RH-2F in HFF, compared with 10 μM pyrimethamine
[15] = 25 μM, RH-2F in HFF, compared with 10 μM pyrimethamine
[16] = 10 μM, 48 h, Vero cells, DMSO = 100%, read-out: Host Viability (%)
[17] = Toxoplasma gondii, HFF, 2.5 μM, RH-2F in HFF, compared with 10 μM pyrimethamine
[18] = Toxoplasma gondii, HFF, 25 μM, RH-2F in HFF, compared with 10 μM pyrimethamine

## Cc1ccc(C(=O)c2cc(/C=C/C(=O)NO)n(C)c2)cc1 [MC-1293]
HFF cells [1]; 2.5 μM, 48 h, HFF cells
  Host cell viability (%): 98%
HFF cells [1]; [11]
  Host cell viability (%): 95%
Vero cells; [12]
  Host Viability (%): 85%
[2]; [13]
  Parasite inhibition (%): 103%
[3]; [14]
  Parasite inhibition (%): 12%
[3]; [15]
  Parasite inhibition (%): 95%

## CCCCC/C=C\C/C=C\C/C=C\C/C=C\CCCC(=O)Nc1ccc(O)cc1 [AM404]
HFF cells [1]; 2.5 μM, 48 h, HFF cells
  Host cell viability (%): 93%
HFF cells [1]; [11]
  Host cell viability (%): 86%
Vero cells; [12]
  Host Viability (%): 100%
[2]; [13]
  Parasite inhibition (%): 103%
[3]; [14]
  Parasite inhibition (%): -11%
[3]; [15]
  Parasite inhibition (%): 59%

## COc1ccc(Cl)cc1NC(=O)Nc1cc(C)nc2ccccc12 [TCMDC-125497]
HFF cells [1]; 2.5 µM
  Host cell viability (%): 99%
HFF cells [1]; 25 µM
  Host cell viability (%): 78%
Vero cells; 10 µM
  Host Viability (%): 82%
[2]; [13]
  Parasite inhibition (%): 106%
[3]; [14]
  Parasite inhibition (%): 20%
[3]; [15]
  Parasite inhibition (%): 113%

## Cc1coc2c1C(=O)C(=O)c1c-2ccc2c1CCCC2(C)C [Tanshinone IIA]
HFF cells [1]; [11]
  Host cell viability (%): 75%
[4]; 2.5 μM, 48 h, HFF cells, read-out: Host cell viability (%)
  viability at 2.5 µM: 99%
[5]; [16]
  viability at 10 µM: 83%
[6]
  Bradyzoite number (firefly luciferase under BAG1 promoter, normalized by host cell number): reduced the bradyzoite number
[2]; [13]
  inhibition at 10 µM: 91%
[7]
  Parasite growth when compound added after 2 h invasion window: reduced parasite growth in a dose dependent manner
[3]; [14]
  Parasite inhibition (%): 55%
[3]; [17]
  inhibition at 2.5 µM: > 50%
[3]; [18]
  inhibition at 25 µM: 112%
[3]; Toxoplasma gondii, RH-2F in HFF cells, β-galactosidase assay, read-out: IC50 for parasite growth (95% CI)
  IC50: 2.5 µM
[8]
  Parasite growth (total parasite vacuole size): reduced parasite growth in a concentration-dependent manner
  Bradyzoite differentiation (GFP-positive PV rate): did not induce bradyzoite differentiation even at high concentrations
[9]
  Relative BAG1 promoter activity (bradyzoite ratio) compared with 5 μM pyrimethamine treatment: 4.7%
HFF cells [10]
  Host cell viability under the bradyzoite-inducing condition: slightly reduced the host cell number

## CC(C)C[C@H]1C(=O)N2CCC[C@H]2[C@]2(O)O[C@](NC(=O)[C@@H]3C=C4c5cccc6[nH]c(Br)c(c56)C[C@H]4N(C)C3)(C(C)C)C(=O)N12 [Bromocriptine]
[4]; HFF cells, 2.5 μM, 48 h, HFF cells, read-out: Host cell viability (%)
  viability at 48 h, 2.5 µM: 98%
[4]; HFF cells, 25 μM, 48 h, HFF cells, compared with DMSO, read-out: Host cell viability (%)
  viability at 48 h, 25 µM: 93%
[5]; [16]
  viability at 48 h, 10 µM: 85%
[2]; [13]
  inhibition at 10 µM: 105%
[3]; Toxoplasma gondii, 2.5 μM, RH-2F in HFF, compared with 10 μM pyrimethamine
  inhibition at 2.5 µM: -8%
[3]; Toxoplasma gondii, 25 μM, RH-2F in HFF, compared with 10 μM pyrimethamine
  inhibition at 25 µM: 110%

## CCc1nc(N)nc(N)c1-c1ccc(Cl)cc1 [Pyrimethamine]
[6]
  Bradyzoite number (firefly luciferase under BAG1 promoter, normalized by host cell number): cannot reduce bradyzoite numbers
[8]
  Parasite growth (total parasite vacuole size): reduced parasite growth in a concentration-dependent manner
  Bradyzoite differentiation (GFP-positive PV rate): induced bradyzoite differentiation

## Nc1ccccc1NC(=O)c1ccc(CNC(=O)OCc2cccnc2)cc1 [Entinostat]
[4]; Host cell viability (%)
  viability at 48 h, 2.5 µM: 92%
  viability at 48 h, 25 µM: 91%
[5]
  viability at 48 h, 10 µM: 83%
[2]; [13]
  inhibition at 10 µM: 91%
[3]; [17]
  inhibition at 2.5 µM: -20%
[3]; [18]
  inhibition at 25 µM: 60%

## COC(=O)C1=C(C)NC(C)=C(C(=O)OCCCN2CCC(c3ccccc3)(c3ccccc3)CC2)[C@H]1c1cccc([N+](=O)[O-])c1 [Niguldipine]
[4]
  viability at 2.5 µM: 99%
  viability at 25 µM: 84%
[5]
  viability at 10 µM: 77%
[2]; Vero
  inhibition at 10 µM: 103%
[3]; Toxoplasma gondii, HFF
  inhibition at 2.5 µM: -19%
  inhibition at 25 µM: 96%

## CC[N+](C)(CC)CCC[n+]1c(-c2ccccc2)c2cc(N)ccc2c2ccc(N)cc21.[I-].[I-] [Propidium Iodide]
Vero cells; 10 µM
  Host Viability (%): 91%
[2]; [13]
  Parasite inhibition (%): 91%

## CC(C)(C)c1ccc(C(O)CCCN2CCC(C(O)(c3ccccc3)c3ccccc3)CC2)cc1 (racemic) [(±)-Terfenadine]
HFF cells [1]; 2.5 µM
  Host cell viability (%): 96%
HFF cells [1]; 25 µM
  Host cell viability (%): 0.1%
Vero cells; 10 µM
  Host Viability (%): 85%
[2]; [13]
  Parasite inhibition (%): 104%
[3]; [14]
  Parasite inhibition (%): -12%
[3]; [15]
  Parasite inhibition (%): 96%
